In patent US20200085789A1, “USE OF A PROTEASOME INHIBITOR FOR THE TREATMENT OF CENTRAL NERVOUS SYSTEM (CNS) CANCERS” (Celgene International II Sàrl, priority 2017, published 2020):

Experiment: Adverse events and dose-limiting toxicity (NCI-CTCAE v 4.03), MRZ ± BEV in recurrent grade IV malignant glioma patients
Type: in vivo, human
Source text: An adverse event (AE) is any noxious, unintended, or untoward medical occurrence that may appear or worsen in a subject during the course of a study. […] Any worsening (i.e., any clinically significant adverse change in the frequency or intensity of a pre-existing condition) should be considered an AE.
The severity/intensity of AEs will be graded based upon the subject's symptoms according to the current active minor version of the Common Terminology Criteria for Adverse Events ( ).

[1] = MRZ 0.7 mg/m^2 + BEV, Cohort 2 (N = 3)
[2] = MRZ 0.8 mg/m^2 + BEV, Cohorts 3 & 4 (N = 27)
[3] = MRZ 0.8 mg/m^2, + BEV N = 27, Monotherapy N = 30
[4] = MRZ 0.8 mg/m^2 Monotherapy (N = 30)

For `C[C@@]12OC(=O)[C@]1([C@@H](O)[C@@H]1C=CCCC1)NC(=O)[C@@H]2CCCl` [MRZ, marizomib], the “Grade ≥3 Ataxia related to the labelled drug, patients” value [1] was 0, the “Grade ≥3 Confusional State related to the labelled drug, patients” value [1] was 0 and the “Grade ≥3 Delusion related to the labelled drug, patients” value [1] was 0. The “Grade ≥3 Dyspnea related to the labelled drug, patients” value [1] was 0, the “Grade ≥3 Embolism related to the labelled drug, patients” value [1] was 0 and the “Grade ≥3 Fall related to the labelled drug, patients” value [1] was 0. For the same compound, the “Grade ≥3 Fatigue related to the labelled drug, patients” value [1] was 0, the “Grade ≥3 Hallucination related to the labelled drug, patients” value [1] was 0 and the “Grade ≥3 Headache related to the labelled drug, patients” value [1] was 0. For the same compound, the “Grade ≥3 Hypertension related to the labelled drug, patients” value [1] was 0, the “Grade ≥3 Hyponatremia related to the labelled drug, patients” value [1] was 0 and the “Grade ≥3 Insomnia related to the labelled drug, patients” value [1] was 0. The “Grade ≥3 Intracranial Hemorrhage related to the labelled drug, patients” value [1] was 0, the “Grade ≥3 Optic Nerve Disorder related to the labelled drug, patients” value [1] was 0 and the “Grade ≥3 Proteinuria related to the labelled drug, patients” value [1] was 0. For the same compound, the “Grade ≥3 Ataxia related to the labelled drug, patients” value [2] was 1, the “Grade ≥3 Confusional State related to the labelled drug, patients” value [2] was 0 and the “Grade ≥3 Delusion related to the labelled drug, patients” value [2] was 1. For the same compound, the “Grade ≥3 Dyspnea related to the labelled drug, patients” value [2] was 1, the “Grade ≥3 Embolism related to the labelled drug, patients” value [2] was 0 and the “Grade ≥3 Fall related to the labelled drug, patients” value [2] was 1. For the same compound, the “Grade ≥3 Fatigue related to the labelled drug, patients” value [2] was 1, the “Grade ≥3 Hallucination related to the labelled drug, patients” value [2] was 1 and the “Grade ≥3 Headache related to the labelled drug, patients” value [2] was 3. The “Grade ≥3 Hypertension related to the labelled drug, patients” value [2] was 0, the “Grade ≥3 Hyponatremia related to the labelled drug, patients” value [2] was 1 and the “Grade ≥3 Insomnia related to the labelled drug, patients” value [2] was 1. The “Grade ≥3 Intracranial Hemorrhage related to the labelled drug, patients” value [2] was 0, the “Grade ≥3 Optic Nerve Disorder related to the labelled drug, patients” value [2] was 0 and the “Grade ≥3 Proteinuria related to the labelled drug, patients” value [2] was 0. The Anaemia [3] was “(20.0%)”, the “Anaemia, patients” value [3] was 6 and the Ataxia [3] was “(20.0%)”. The “Ataxia, patients” value [3] was 6, the Confusional state [3] was “(23.3%)” and the “Confusional state, patients” value [3] was 7. For the same compound, the Constipation [3] was “(30.0%)”, the “Constipation, patients” value [3] was 9 and the Diarrhoea [3] was “(23.3%)”. For the same compound, the “Diarrhoea, patients” value [3] was 7, the Dizziness [3] was “(16.7%)” and the “Dizziness, patients” value [3] was 5. For the same compound, the Dysarthria [3] was “(16.7%)”, the “Dysarthria, patients” value [3] was 5 and the Dysphonia [3] was “(3.3%)”. For the same compound, the “Dysphonia, patients” value [3] was 1, the Epistaxis [3] was “(6.7%)” and the “Epistaxis, patients” value [3] was 2. The Fall [3] was “(13.3%)”, the “Fall, patients” value [3] was 4 and the Fatigue [3] was “(63.3%)”. The “Fatigue, patients” value [3] was 19, the Hallucination [3] was “(40.0%)” and the “Hallucination, patients” value [3] was 12. For the same compound, the Headache [3] was “(40.0%)”, the “Headache, patients” value [3] was 12 and the Hyperglycaemia [3] was “(27.6%)”. The “Hyperglycaemia, patients” value [3] was 8, the Hypertension [3] was “(13.3%)” and the “Hypertension, patients” value [3] was 4. The Hypokalemia [3] was “(27.6%)”, the “Hypokalemia, patients” value [3] was 8 and the Infusion site pain [3] was “(10.0%)”. The “Infusion site pain, patients” value [3] was 3, the Insomnia [3] was “(46.7%)” and the “Insomnia, patients” value [3] was 14. For the same compound, the Nausea [3] was “(36.7%)”, the “Nausea, patients” value [3] was 11 and the Platelet count decreased [3] was “(23.3%)”. The “Platelet count decreased, patients” value [3] was 7, the Vomiting [3] was “(30.0%)” and the “Vomiting, patients” value [3] was 9. For the same compound, the “Anaemia MRZ Related” value [4] was “(16.7%”, the “Anaemia MRZ Related, patients” value [4] was 5 and the “Ataxia MRZ Related” value [4] was “(16.7%)”. The “Ataxia MRZ Related, patients” value [4] was 5, the “Confusional state MRZ Related” value [4] was “(20.0%)” and the “Confusional state MRZ Related, patients” value [4] was 6. The “Constipation MRZ Related” value [4] was “(20.0%)”, the “Constipation MRZ Related, patients” value [4] was 6 and the “Diarrhoea MRZ Related” value [4] was “(23.3) %”. The “Diarrhoea MRZ Related, patients” value [4] was 7, the “Dizziness MRZ Related” value [4] was “(10.0%)” and the “Dizziness MRZ Related, patients” value [4] was 3. For the same compound, the “Dysphonia MRZ Related, patients” value [4] was 0, the “Epistaxis MRZ Related” value [4] was “(3.3%)” and the “Epistaxis MRZ Related, patients” value [4] was 1. The “Fall MRZ Related” value [4] was “(3.3%)”, the “Fall MRZ Related, patients” value [4] was 1 and the “Fatigue MRZ Related” value [4] was “(60.0%)”. For the same compound, the “Fatigue MRZ Related, patients” value [4] was 18, the “Hallucination MRZ Related” value [4] was “(36.7%)” and the “Hallucination MRZ Related, patients” value [4] was 11. The “Headache MRZ Related” value [4] was “(36.7%)”, the “Headache MRZ Related, patients” value [4] was 11 and the “Hypertension MRZ Related” value [4] was 93.3%). The “Hypertension MRZ Related, patients” value [4] was 1, the “Infusion site pain MRZ Related” value [4] was “(6.7%)” and the “Infusion site pain MRZ Related, patients” value [4] was 2. For the same compound, the “Muscular weakness MRZ Related, patients” value [4] was 0, the “Nausea MRZ Related” value [4] was “(30.0%)” and the “Nausea MRZ Related, patients” value [4] was 9. The “Platelet count decreased MRZ Related, patients” value [4] was 0, the “Stomatitis MRZ Related, patients” value [4] was 0 and the “Upper-airway cough syndrome MRZ Related, patients” value [4] was 0. For the same compound, the “Vomiting MRZ Related” value [4] was “(23.3) %”, the “Vomiting MRZ Related, patients” value [4] was 7 and the “Anemia: patients, Total” value (Part 1 N = 36, Part 2 N = 30) was 6. For the same compound, the “Anemia: patients, worst Grade 1” value (Part 1 N = 36, Part 2 N = 30) was 5, the “Anemia: patients, worst Grade 2” value (Part 1 N = 36, Part 2 N = 30) was 1 and the “Ataxia: patients, Total” value (Part 1 N = 36, Part 2 N = 30) was 8. The “Ataxia: patients, worst Grade 1” value (Part 1 N = 36, Part 2 N = 30) was 3, the “Ataxia: patients, worst Grade 2” value (Part 1 N = 36, Part 2 N = 30) was 5 and the “Confusional State: patients, Total” value (Part 1 N = 36, Part 2 N = 30) was 7. For the same compound, the “Confusional State: patients, worst Grade 1” value (Part 1 N = 36, Part 2 N = 30) was 3, the “Confusional State: patients, worst Grade 2” value (Part 1 N = 36, Part 2 N = 30) was 4 and the “Constipation: patients, Total” value (Part 1 N = 36, Part 2 N = 30) was 10. The “Constipation: patients, worst Grade 1” value (Part 1 N = 36, Part 2 N = 30) was 10, the “Diarrhea: patients, Total” value (Part 1 N = 36, Part 2 N = 30) was 7 and the “Diarrhea: patients, worst Grade 1” value (Part 1 N = 36, Part 2 N = 30) was 6. The “Diarrhea: patients, worst Grade 3” value (Part 1 N = 36, Part 2 N = 30) was 1, the “Dizziness: patients, Total” value (Part 1 N = 36, Part 2 N = 30) was 5 and the “Dizziness: patients, worst Grade 1” value (Part 1 N = 36, Part 2 N = 30) was 4. For the same compound, the “Dizziness: patients, worst Grade 2” value (Part 1 N = 36, Part 2 N = 30) was 1, the “Dysphonia: patients, Total” value (Part 1 N = 36, Part 2 N = 30) was 1 and the “Dysphonia: patients, worst Grade 1” value (Part 1 N = 36, Part 2 N = 30) was 1. For the same compound, the “Epistaxis: patients, Total” value (Part 1 N = 36, Part 2 N = 30) was 2, the “Epistaxis: patients, worst Grade 1” value (Part 1 N = 36, Part 2 N = 30) was 2 and the “Fall: patients, Total” value (Part 1 N = 36, Part 2 N = 30) was 4. The “Fall: patients, worst Grade 1” value (Part 1 N = 36, Part 2 N = 30) was 3.
